The NIST ThermoML archive (doi:10.1016/j.jct.2010.11.004)

Assay: excess molar enthalpy (molar enthalpy of mixing); xn = mol fraction of the nth substance listed
Conditions: 298.15 K, 101 kPa, Liquid, ISOTHERMAL TITRATION CALORIMETRY

CCCCCOCCCCC [dipentyl ether] + CCCCCCCCCCCCCC
Conditions	excess molar enthalpy [kJ/mol]
x1 = 0.0299	0.029
x1 = 0.0581	0.054
x1 = 0.0847	0.076
x1 = 0.1099	0.095
x1 = 0.1337	0.111
x1 = 0.1562	0.127
x1 = 0.1776	0.14
x1 = 0.198	0.151
x1 = 0.22	0.164
x1 = 0.2447	0.174
x1 = 0.266	0.184
x1 = 0.2862	0.192
x1 = 0.3054	0.198
x1 = 0.3235	0.203
x1 = 0.3407	0.208
x1 = 0.357	0.212
x1 = 0.3761	0.217
x1 = 0.394	0.22
x1 = 0.411	0.222
x1 = 0.427	0.224
x1 = 0.4422	0.225
x1 = 0.4566	0.226
x1 = 0.4702	0.227
x1 = 0.4832	0.227
x1 = 0.4927	0.227
x1 = 0.5031	0.228
x1 = 0.5139	0.228
x1 = 0.5253	0.229
x1 = 0.5371	0.228
x1 = 0.5494	0.228
x1 = 0.5604	0.227
x1 = 0.5718	0.226
x1 = 0.5838	0.224
x1 = 0.5962	0.223
x1 = 0.6092	0.221
x1 = 0.6228	0.218
x1 = 0.6369	0.214
x1 = 0.6502	0.212
x1 = 0.664	0.208
x1 = 0.6784	0.204
x1 = 0.6934	0.199
x1 = 0.7092	0.194
x1 = 0.7256	0.188
x1 = 0.7398	0.182
x1 = 0.7546	0.176
x1 = 0.7699	0.169
x1 = 0.7859	0.16
x1 = 0.8026	0.151
x1 = 0.8199	0.141
x1 = 0.8353	0.131
x1 = 0.8513	0.121
x1 = 0.8679	0.11
x1 = 0.8852	0.098
x1 = 0.9032	0.085
x1 = 0.918	0.074
x1 = 0.9333	0.061
x1 = 0.9491	0.047
x1 = 0.9655	0.032
x1 = 0.9824	0.017

CCCCCCCCC(C)=O [2-decanone] + CCCCCCCCCCCC
Conditions	excess molar enthalpy [kJ/mol]
x1 = 0.0258	0.133
x1 = 0.0503	0.247
x1 = 0.0736	0.344
x1 = 0.0958	0.427
x1 = 0.1169	0.499
x1 = 0.1371	0.56
x1 = 0.1612	0.629
x1 = 0.1841	0.685
x1 = 0.2057	0.733
x1 = 0.2262	0.773
x1 = 0.2456	0.807
x1 = 0.2641	0.835
x1 = 0.2847	0.862
x1 = 0.3042	0.884
x1 = 0.3226	0.904
x1 = 0.3401	0.918
x1 = 0.3567	0.93
x1 = 0.3725	0.938
x1 = 0.3897	0.945
x1 = 0.406	0.949
x1 = 0.4215	0.952
x1 = 0.4362	0.952
x1 = 0.4501	0.951
x1 = 0.4634	0.949
x1 = 0.4782	0.946
x1 = 0.4923	0.941
x1 = 0.5055	0.936
x1 = 0.5182	0.929
x1 = 0.5302	0.922
x1 = 0.5416	0.914
x1 = 0.5543	0.905
x1 = 0.5663	0.895
x1 = 0.5777	0.884
x1 = 0.5885	0.873
x1 = 0.5987	0.863
x1 = 0.6049	0.854
x1 = 0.6179	0.84
x1 = 0.6311	0.825
x1 = 0.6448	0.806
x1 = 0.6592	0.787
x1 = 0.6742	0.766
x1 = 0.6899	0.744
x1 = 0.704	0.722
x1 = 0.7187	0.699
x1 = 0.7341	0.673
x1 = 0.7501	0.644
x1 = 0.7668	0.611
x1 = 0.7843	0.575
x1 = 0.8	0.543
x1 = 0.8163	0.508
x1 = 0.8334	0.467
x1 = 0.8511	0.428
x1 = 0.8696	0.384
x1 = 0.889	0.334
x1 = 0.9057	0.287
x1 = 0.9231	0.239
x1 = 0.9412	0.185
x1 = 0.96	0.129
x1 = 0.9796	0.066

CCCCCCCCC(C)=O [2-decanone] + CCCCCCCCCCCCCCCC
Conditions	excess molar enthalpy [kJ/mol]
x1 = 0.0372	0.201
x1 = 0.0716	0.364
x1 = 0.1038	0.497
x1 = 0.1337	0.607
x1 = 0.1617	0.698
x1 = 0.188	0.773
x1 = 0.2169	0.849
x1 = 0.2437	0.909
x1 = 0.2688	0.959
x1 = 0.2923	0.999
x1 = 0.3143	1.03
x1 = 0.335	1.06
x1 = 0.3574	1.08
x1 = 0.3784	1.1
x1 = 0.3981	1.11
x1 = 0.4166	1.12
x1 = 0.434	1.13
x1 = 0.4503	1.13
x1 = 0.4686	1.13
x1 = 0.4857	1.13
x1 = 0.5017	1.13
x1 = 0.5168	1.12
x1 = 0.531	1.11
x1 = 0.5443	1.1
x1 = 0.559	1.09
x1 = 0.5728	1.08
x1 = 0.5858	1.07
x1 = 0.598	1.06
x1 = 0.6095	1.04
x1 = 0.6204	1.03
x1 = 0.6324	1.02
x1 = 0.6436	1
x1 = 0.6542	0.986
x1 = 0.6641	0.97
x1 = 0.6735	0.954
x1 = 0.6824	0.939
x1 = 0.6964	0.906
x1 = 0.7102	0.88
x1 = 0.7245	0.854
x1 = 0.7393	0.826
x1 = 0.7521	0.8
x1 = 0.7655	0.77
x1 = 0.7793	0.738
x1 = 0.7936	0.703
x1 = 0.8084	0.665
x1 = 0.8238	0.623
x1 = 0.8372	0.586
x1 = 0.8511	0.546
x1 = 0.8654	0.501
x1 = 0.8802	0.455
x1 = 0.8955	0.404
x1 = 0.9114	0.35
x1 = 0.9251	0.302
x1 = 0.9391	0.25
x1 = 0.9537	0.193
x1 = 0.9686	0.133
x1 = 0.9841	0.068
